pIC50: −log10 of the molar value. Values belong to the molecule of their own block, whether it stands above or below them.
Legend:
[1] = Lipophilicity , logP of the compound; type: physicochemical; conditions: octanol/water
[2] = target: ATP-dependent translocase ABCB1 (Homo sapiens, UniProt P08183); assay: Inhibition of human P-glycoprotein transfected in pig LLC-GA5-COL150 cells assessed as quinidine transport from apical to basolateral side preincubated for 30 mins followed by quinidine addition to apical side measured after 60 mins; type: cell-based; set-up: log(activity): scale not given here; conditions: for log(activity): human, llc-ga5-col150, 1 h
Chain of ATP-dependent translocase ABCB1 (P08183 whole entry): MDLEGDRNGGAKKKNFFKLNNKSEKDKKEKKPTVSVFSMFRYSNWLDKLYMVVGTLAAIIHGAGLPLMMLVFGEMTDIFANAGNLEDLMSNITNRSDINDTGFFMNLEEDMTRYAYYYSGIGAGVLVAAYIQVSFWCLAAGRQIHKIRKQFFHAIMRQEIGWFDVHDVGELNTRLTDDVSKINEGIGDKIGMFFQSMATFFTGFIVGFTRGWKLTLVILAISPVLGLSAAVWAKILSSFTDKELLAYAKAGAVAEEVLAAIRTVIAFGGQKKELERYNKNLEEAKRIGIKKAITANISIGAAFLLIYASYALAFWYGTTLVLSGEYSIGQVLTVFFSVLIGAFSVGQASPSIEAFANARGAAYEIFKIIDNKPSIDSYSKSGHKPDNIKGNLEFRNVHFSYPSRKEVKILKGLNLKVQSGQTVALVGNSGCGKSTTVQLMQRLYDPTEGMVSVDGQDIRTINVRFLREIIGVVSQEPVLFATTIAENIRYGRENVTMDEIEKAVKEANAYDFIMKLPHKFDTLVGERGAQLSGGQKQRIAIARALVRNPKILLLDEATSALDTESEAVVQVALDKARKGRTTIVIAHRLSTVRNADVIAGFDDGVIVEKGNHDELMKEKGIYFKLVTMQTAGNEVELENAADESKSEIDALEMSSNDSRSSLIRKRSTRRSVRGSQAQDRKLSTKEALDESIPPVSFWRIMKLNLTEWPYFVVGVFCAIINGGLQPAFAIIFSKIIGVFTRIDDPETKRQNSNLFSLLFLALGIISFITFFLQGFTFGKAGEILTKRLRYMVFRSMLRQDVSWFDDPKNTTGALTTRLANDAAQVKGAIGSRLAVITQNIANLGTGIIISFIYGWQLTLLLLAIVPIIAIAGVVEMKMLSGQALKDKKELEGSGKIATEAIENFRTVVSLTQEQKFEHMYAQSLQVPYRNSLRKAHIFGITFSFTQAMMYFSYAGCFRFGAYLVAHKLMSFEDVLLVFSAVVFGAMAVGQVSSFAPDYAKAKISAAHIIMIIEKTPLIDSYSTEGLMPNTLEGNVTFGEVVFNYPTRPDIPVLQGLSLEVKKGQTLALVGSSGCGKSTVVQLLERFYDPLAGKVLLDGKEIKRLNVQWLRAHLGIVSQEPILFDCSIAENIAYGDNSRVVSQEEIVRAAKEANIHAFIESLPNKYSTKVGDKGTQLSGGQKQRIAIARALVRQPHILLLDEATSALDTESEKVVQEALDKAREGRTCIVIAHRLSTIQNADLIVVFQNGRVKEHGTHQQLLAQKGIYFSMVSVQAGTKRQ

P-glycoprotein (ABCB1) = P-glycoprotein (ABCB1) (Homo sapiens, UniProt P08183); assay: Inhibition of human P-glycoprotein transfected in pig LLC-GA5-COL150 cells assessed as quinidine transport from apical to basolateral side at 30 uM preincubated for 30 mins followed by quinidine addition to apical side measured after 60 mins; type: cell-based; conditions: LLC-PK1, probe quinidine
Chain of P-glycoprotein (ABCB1) (P08183 whole entry): as above

logP [1]: 2.81 | log(activity) [2]: -0.92 | inhibition at 1 h, 30 µM (P-glycoprotein (ABCB1)): 10.8%
SMILES: COc1cccc(C(=O)NN(C(=O)c2ccccc2Cl)C(C)(C)C)c1

logP [1]: 2.91 | log(activity) [2]: -0.95 | inhibition at 1 h, 30 µM (P-glycoprotein (ABCB1)): 10.1%
SMILES: CC(C)(C)N(NC(=O)c1ccccc1Br)C(=O)c1ccccc1Cl

log(activity) [2]: -0.89 | inhibition at 1 h, 30 µM (P-glycoprotein (ABCB1)): 11.5%
SMILES: Cc1cccc(C(=O)NN(C(=O)c2ccccc2Cl)C(C)(C)C)c1

logP [1]: 3.87 | log(activity) [2]: 0.25 | inhibition at 1 h, 30 µM (P-glycoprotein (ABCB1)): 63.9%
SMILES: CC(C)(C)N(NC(=O)c1cccc(I)c1)C(=O)c1ccccc1Cl

log(activity) [2]: -1.25 | inhibition at 1 h, 30 µM (P-glycoprotein (ABCB1)): 5.4%
SMILES: CC(C)(C)N(NC(=O)c1ccccc1)C(=O)c1ccccc1Cl

log(activity) [2]: -1.08 | inhibition at 1 h, 30 µM (P-glycoprotein (ABCB1)): 7.6%
SMILES: CC(C)(C)N(NC(=O)c1cccc(F)c1)C(=O)c1ccccc1Cl

log(activity) [2]: -1.29 | inhibition at 1 h, 30 µM (P-glycoprotein (ABCB1)): 4.9%
SMILES: CC(C)(C)N(NC(=O)c1ccc(C#N)cc1)C(=O)c1ccccc1Cl

logP [1]: 2.73 | pIC50 [2]: 4.19 | log(activity) [2]: -0.7 | inhibition at 1 h, 30 µM (P-glycoprotein (ABCB1)): 16.6%
SMILES: CC(C)(C)N(NC(=O)c1cccc([N+](=O)[O-])c1)C(=O)c1ccccc1Cl

log(activity) [2]: -1.1 | inhibition at 1 h, 30 µM (P-glycoprotein (ABCB1)): 7.3%
SMILES: Cc1ccc(C(=O)NN(C(=O)c2ccccc2Cl)C(C)(C)C)cc1

logP [1]: 3.62 | log(activity) [2]: -0.31 | inhibition at 1 h, 30 µM (P-glycoprotein (ABCB1)): 33%
SMILES: CC(C)(C)N(NC(=O)c1cccc(Br)c1)C(=O)c1ccccc1Cl

log(activity) [2]: -1.25 | inhibition at 1 h, 30 µM (P-glycoprotein (ABCB1)): 5.3%
SMILES: CC(C)(C)N(NC(=O)c1ccccc1Cl)C(=O)c1ccccc1Cl

logP [1]: 3.4 | log(activity) [2]: -0.99 | inhibition at 1 h, 30 µM (P-glycoprotein (ABCB1)): 9.3%
SMILES: Cc1cccc(C(=O)NN(C(=O)c2ccccc2Cl)C(C)(C)C)c1C

logP [1]: 2.48 | log(activity) [2]: -0.98 | inhibition at 1 h, 30 µM (P-glycoprotein (ABCB1)): 9.5%
SMILES: CC(C)(C)N(NC(=O)c1cccc(C#N)c1)C(=O)c1ccccc1Cl

logP [1]: 3.7 | pIC50 [2]: 4.36 | log(activity) [2]: -0.3 | inhibition at 1 h, 30 µM (P-glycoprotein (ABCB1)): 33.4%
SMILES: CC(C)(C)N(NC(=O)c1cccc(C(F)(F)F)c1)C(=O)c1ccccc1Cl

logP [1]: 4.25 | inhibition at 1 h, 30 µM (P-glycoprotein (ABCB1)): 98.9%
SMILES: CC(C)(C)N(NC(=O)c1ccc(Cl)c(Cl)c1)C(=O)c1ccccc1Cl

logP [1]: 3.11 | log(activity) [2]: -0.55 | inhibition at 1 h, 30 µM (P-glycoprotein (ABCB1)): 21.8%
SMILES: CC(C)(C)N(NC(=O)c1ccccc1I)C(=O)c1ccccc1Cl

log(activity) [2]: -1.3 | inhibition at 1 h, 30 µM (P-glycoprotein (ABCB1)): 4.8%
SMILES: CC(C)(C)N(NC(=O)c1ccc(F)cc1)C(=O)c1ccccc1Cl

Continued, molecule first:

SMILES: Cc1cc(C)cc(C(=O)N(NC(=O)c2cccc(C)c2C)C(C)(C)C)c1
logP [1]: 4.43 | log(activity) [2]: -0.16 | inhibition at 1 h, 30 µM (P-glycoprotein (ABCB1)): 41.1%

SMILES: CC(C)(C)N(NC(=O)c1cccc(Cl)c1)C(=O)c1ccccc1Cl
pIC50 [2]: 4.34 | log(activity) [2]: -0.43 | inhibition at 1 h, 30 µM (P-glycoprotein (ABCB1)): 27.3%

SMILES: CCc1ccc(C(=O)NN(C(=O)c2ccccc2Cl)C(C)(C)C)cc1
log(activity) [2]: -0.52 | inhibition at 1 h, 30 µM (P-glycoprotein (ABCB1)): 23%

SMILES: CC(C)(C)N(NC(=O)c1c(Cl)cccc1Cl)C(=O)c1ccccc1Cl
logP [1]: 3.03 | log(activity) [2]: -1.21 | inhibition at 1 h, 30 µM (P-glycoprotein (ABCB1)): 5.8%

SMILES: Cc1cc(C)cc(C(=O)N(NC(=O)c2cc(F)c(F)cc2F)C(C)(C)C)c1
logP [1]: 3.71 | inhibition at 1 h, 30 µM (P-glycoprotein (ABCB1)): 1.9%

SMILES: COc1cccc(C(=O)NN(C(=O)c2cc(C)cc(C)c2)C(C)(C)C)c1
logP [1]: 3.75 | pIC50 [2]: 4.24 | log(activity) [2]: -0.28 | inhibition at 1 h, 30 µM (P-glycoprotein (ABCB1)): 34.2%

SMILES: CC(C)(C)N(NC(=O)c1ccccc1-c1ccccc1)C(=O)c1ccccc1Cl
logP [1]: 3.77 | pIC50 [2]: 4.90 | log(activity) [2]: 0.61 | inhibition at 1 h, 30 µM (P-glycoprotein (ABCB1)): 80.3%

SMILES: CCCc1ccc(C(=O)NN(C(=O)c2ccccc2Cl)C(C)(C)C)cc1
log(activity) [2]: -0.02 | inhibition at 1 h, 30 µM (P-glycoprotein (ABCB1)): 48.7%

SMILES: CCCc1ccc(C(=O)NN(C(=O)c2cc(C)cc(C)c2)C(C)(C)C)cc1
logP [1]: 4.86 | pIC50 [2]: 4.82 | log(activity) [2]: 0.15 | inhibition at 1 h, 30 µM (P-glycoprotein (ABCB1)): 58.4%

SMILES: CC(C)(C)N(NC(=O)c1ccccc1[N+](=O)[O-])C(=O)c1ccccc1Cl
logP [1]: 1.99 | inhibition at 1 h, 30 µM (P-glycoprotein (ABCB1)): 1.7%

SMILES: CSc1ccccc1C(=O)NN(C(=O)c1ccccc1Cl)C(C)(C)C
logP [1]: 2.84 | log(activity) [2]: -1.13 | inhibition at 1 h, 30 µM (P-glycoprotein (ABCB1)): 7%

SMILES: CC(C)(C)N(NC(=O)c1ccc(C(F)(F)F)cc1)C(=O)c1ccccc1Cl
log(activity) [2]: -0.71 | inhibition at 1 h, 30 µM (P-glycoprotein (ABCB1)): 16.2%

SMILES: COc1cccc(C(=O)NN(C(=O)c2cc(C)cc(C)c2)C(C)(C)C)c1C [METHOXYFENOZIDE]
pIC50 [2]: 4.35 | log(activity) [2]: -0.33 | inhibition at 1 h, 30 µM (P-glycoprotein (ABCB1)): 32%

SMILES: Cc1cc(C)cc(C(=O)N(NC(=O)c2ccc(Cl)cc2)C(C)(C)C)c1
logP [1]: 4.31 | log(activity) [2]: -0.78 | inhibition at 1 h, 30 µM (P-glycoprotein (ABCB1)): 14.2%

SMILES: Cc1cc(C)cc(C(=O)N(NC(=O)c2ccc(C(F)(F)F)cc2)C(C)(C)C)c1
logP [1]: 4.66 | inhibition at 1 h, 30 µM (P-glycoprotein (ABCB1)): 0.9%

SMILES: Cc1cc(C)cc(C(=O)NN(C(=O)c2ccccc2Cl)C(C)(C)C)c1
logP [1]: 3.67 | log(activity) [2]: -0.54 | inhibition at 1 h, 30 µM (P-glycoprotein (ABCB1)): 22.4%

SMILES: CC(=O)c1ccc(C(=O)NN(C(=O)c2ccccc2Cl)C(C)(C)C)cc1
log(activity) [2]: -1.25 | inhibition at 1 h, 30 µM (P-glycoprotein (ABCB1)): 5.3%

SMILES: CC(C)(C)N(NC(=O)c1ccc(Cl)cc1Cl)C(=O)c1ccccc1Cl
logP [1]: 3.71 | log(activity) [2]: -0.16 | inhibition at 1 h, 30 µM (P-glycoprotein (ABCB1)): 40.7%

SMILES: CC(C)(C)N(NC(=O)c1c(F)cccc1Cl)C(=O)c1ccccc1Cl
logP [1]: 2.67 | log(activity) [2]: -1.13 | inhibition at 1 h, 30 µM (P-glycoprotein (ABCB1)): 6.9%

SMILES: CC(C)(C)N(NC(=O)c1cccc(Cl)c1Cl)C(=O)c1ccccc1Cl
logP [1]: 3.75 | log(activity) [2]: -0.09 | inhibition at 1 h, 30 µM (P-glycoprotein (ABCB1)): 45%

SMILES: CCOc1cccc(C(=O)NN(C(=O)c2cc(C)cc(C)c2)C(C)(C)C)c1
logP [1]: 4.28 | pIC50 [2]: 4.40 | log(activity) [2]: 0.02 | inhibition at 1 h, 30 µM (P-glycoprotein (ABCB1)): 50.9%

SMILES: CC(C)(C)N(NC(=O)c1ccccc1C(F)(F)F)C(=O)c1ccccc1Cl
logP [1]: 3.02 | log(activity) [2]: -0.73 | inhibition at 1 h, 30 µM (P-glycoprotein (ABCB1)): 15.6%

SMILES: Cc1cccc(C(=O)NN(C(=O)c2cc(C)cc(C)c2)C(C)(C)C)c1
logP [1]: 3.98 | pIC50 [2]: 4.32 | log(activity) [2]: -0.23 | inhibition at 1 h, 30 µM (P-glycoprotein (ABCB1)): 36.8%

SMILES: CC(C)(C)N(NC(=O)c1ccccc1F)C(=O)c1ccccc1Cl
log(activity) [2]: -1.21 | inhibition at 1 h, 30 µM (P-glycoprotein (ABCB1)): 5.9%

SMILES: COc1ccc(C(=O)NN(C(=O)c2ccccc2Cl)C(C)(C)C)cc1
log(activity) [2]: -1.13 | inhibition at 1 h, 30 µM (P-glycoprotein (ABCB1)): 6.9%

SMILES: COc1ccccc1C(=O)NN(C(=O)c1ccccc1Cl)C(C)(C)C
logP [1]: 2.37 | log(activity) [2]: -1.14 | inhibition at 1 h, 30 µM (P-glycoprotein (ABCB1)): 6.7%

SMILES: Cc1cc(C)cc(C(=O)N(NC(=O)c2ccccc2)C(C)(C)C)c1
pIC50 [2]: 4.00 | log(activity) [2]: -0.69 | inhibition at 1 h, 30 µM (P-glycoprotein (ABCB1)): 17%

SMILES: Cc1cc(C)cc(C(=O)N(NC(=O)c2cccc(O)c2)C(C)(C)C)c1
logP [1]: 3.34 | inhibition at 1 h, 30 µM (P-glycoprotein (ABCB1)): 1%

SMILES: Cc1ccc(C)c(C(=O)NN(C(=O)c2ccccc2Cl)C(C)(C)C)c1
logP [1]: 3.4 | pIC50 [2]: 4.13 | log(activity) [2]: -0.44 | inhibition at 1 h, 30 µM (P-glycoprotein (ABCB1)): 26.8%

SMILES: Cc1cc(C)cc(C(=O)N(NC(=O)c2ccc(C(C)C)cc2)C(C)(C)C)c1
logP [1]: 4.91 | log(activity) [2]: -0.02 | inhibition at 1 h, 30 µM (P-glycoprotein (ABCB1)): 49%

SMILES: CC(C)(C)N(NC(=O)c1cc(Cl)ccc1Cl)C(=O)c1ccccc1Cl
logP [1]: 3.75 | pIC50 [2]: 4.33 | log(activity) [2]: -0.1 | inhibition at 1 h, 30 µM (P-glycoprotein (ABCB1)): 44.2%

SMILES: CCc1ccc(C(=O)NN(C(=O)c2cc(C)cc(C)c2)C(C)(C)C)cc1 [TEBUFENOZIDE]
pIC50 [2]: 4.67 | log(activity) [2]: 0.06 | inhibition at 1 h, 30 µM (P-glycoprotein (ABCB1)): 53.3%

SMILES: Cc1cc(C)cc(C(=O)N(NC(=O)c2cccc(O)c2C)C(C)(C)C)c1
logP [1]: 3.84 | inhibition at 1 h, 30 µM (P-glycoprotein (ABCB1)): 0.5%

SMILES: CC(C)(C)N(NC(=O)c1cc(Cl)cc(Cl)c1)C(=O)c1ccccc1Cl
logP [1]: 4.29 | inhibition at 1 h, 30 µM (P-glycoprotein (ABCB1)): 97.2%

SMILES: Cc1cc(C)cc(C(=O)N(NC(=O)c2ccc(F)c(F)c2F)C(C)(C)C)c1
logP [1]: 3.64 | inhibition at 1 h, 30 µM (P-glycoprotein (ABCB1)): 2.5%

Source: ChEMBL document CHEMBL3813651, “Structure-activity relationships of dibenzoylhydrazines for the inhibition of P-glycoprotein-mediated quinidine transport” (Bioorg Med Chem, 2016)
